Experimental data published in patent US10052336B2, “Pulmonary interstitial pneumonia treatment” (priority 2012, dated 2018).

How the values were obtained:
[1] = test system: non-specific interstitial pneumonitis (NSIP); test: Inventor's own treatment course for non-specific interstitial pneumonitis, tracked by CRP level and symptoms; format: in vivo, human; details: tapered-down doses of prednisone from 30-40 mg/day
Procedure: NSIP is a sub-type of Idiopathic Pulmonary Fibrosis (IPF), comprising a group of interstitial pneumonias. […] Following the NSIP diagnosis, my tapered prednisone treatments were supplemented with 100 mg/day azathioprine and, subsequently, with 1800 mg/day N-Acetyl Cysteine (NAC).

[2] = test system: idiopathic pulmonary fibrosis; details: as compared with placebo; Martinez F. J. et al., N Engl J Med 2014; cited from earlier work

With `C[C@]12C=CC(=O)C=C1CC[C@@H]1[C@@H]2C(=O)C[C@@]2(C)[C@H]1CC[C@]2(O)C(=O)CO` [prednisone] as the molecule, how does the “symptoms (dry cough, dyspnea, fever)” value [1] read?
Its value is “continued symptoms to worsen”.

And the “systemic inflammation as measured by CRP level” value ([1]; eventually approaching and exceeding levels in the teens of mg/l)?
The value was “continued to worsen”.

Which “preservation of FVC [i.e., lung capacity]” value [2] does the source give for `CC(=O)N[C@@H](CS)C(=O)O` [acetylcysteine, N-Acetyl Cysteine] here?
Its value is “no significant benefit”.
